Read-outs that look alike come from different tables or passages of the source.
Tests used:
Assay type in all cases: cell-based
[1] = system: renal carcinoma cells (786-O); experiment: In vitro potency (CellTiter-Glo, 96 h), 786-O; details: Homo sapiens, 786-0, 96 h
Outline: (§1)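 Four-day continuous exposure at 37 °C to serially diluted ADC or free camptothecin payload, in RPMI 1640 with 20% FBS after 24 h pre-plating. Luminescent signal gave IC50 (ng/mL; nmol/L).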

melanoma cells (A2058) = experiment: In vitro potency (CellTiter-Glo, 96 h), A2058; details: Homo sapiens, A2058, 96 h
Outline: (§2)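 Growth inhibition after 96 h at 37 °C with test article, measured by luminescence; cells in RPMI 1640, 20% FBS.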

[2] = system: pancreatic cancer cells (BxPC3); experiment: In vitro potency (CellTiter-Glo, 96 h), BxPC3; details: Homo sapiens, BXPC-3, 96 h
Outline: (§3)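 Seed log-phase cells 24 h (RPMI 1640, 20% FBS); add ADC serial dilutions; incubate 96 h, 37 °C; read luminescence; IC50 in ng/mL.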

[3] = system: non-small-cell lung cancer cells (Calu1); experiment: In vitro potency (CellTiter-Glo, 96 h), Calu1; details: Homo sapiens, Calu-1, 96 h
Outline: as §2

[4] = system: anaplastic large cell lymphoma cells (DEL); experiment: In vitro potency (CellTiter-Glo, 96 h), DEL
Outline: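 Cells in log-phase growth seeded 24 h in RPMI 1640 with 20% FBS, then exposed to serially diluted ADC or CPT free drug for 96 h at 37 °C. Growth inhibition read by CellTiter-Glo luminescence; IC50 reported in ng/mL or nmol/L.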

[5] = system: anaplastic large cell lymphoma cells (DELBVR); experiment: In vitro potency (CellTiter-Glo, 96 h), DELBVR
Outline: as §1

[6] = system: anaplastic large cell lymphoma cells (Karpas299); experiment: In vitro potency (CellTiter-Glo, 96 h), Karpas299; details: Homo sapiens, KARPAS-299, 96 h
Outline: as §1

[7] = system: Hodgkin's lymphoma cells (L540cy); experiment: In vitro potency (CellTiter-Glo, 96 h), L540cy
Outline: as §1

Ls174T cells = experiment: In vitro potency (CellTiter-Glo, 96 h), Ls174T; details: Homo sapiens, LS174T
Outline: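 Cells in log-phase growth are plated in RPMI 1640/20% FBS for 24 h. Serially diluted conjugates are then added, and plates are kept at 37 °C for 4 days before ATP-based luminescence gives growth inhibition.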

[8] = system: breast cancer cells (MDA-MB-231); experiment: In vitro potency (CellTiter-Glo, 96 h), MDA-MB-231; details: Homo sapiens, MDA-MB-231, 96 h
Outline: as §1

[9] = system: acute myeloid leukemia cells (MOLM-13); experiment: In vitro potency (CellTiter-Glo, 96 h), MOLM-13; details: Homo sapiens, MOLM-13, 96 h
Outline: as §3

[10] = system: B-lymphocyte cancer cells (SU-DHL4); experiment: In vitro potency (CellTiter-Glo, 96 h), SU-DHL-4; details: Homo sapiens, SU-DHL-4, 96 h
Outline: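 Following a 24 h seeding period in 20% FBS-supplemented RPMI 1640, log-phase cells receive graded concentrations of conjugate. Incubation runs for 4 days at 37 °C, after which luminescence is recorded and IC50 calculated in ng/mL.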

[11] = read-out: IC50 (nmol/L) 786-O, CPT free drugs, Table 24, CellTiter-Glo after 96 h exposure
[12] = read-out: IC50 (nmol/L) BxPC3, CPT free drugs, Table 24, CellTiter-Glo after 96 h exposure
[13] = read-out: IC50 (nmol/L) Karpas299, CPT free drugs, Table 24, CellTiter-Glo after 96 h exposure
[14] = read-out: IC50 (nmol/L) L540cy, CPT free drugs, Table 24, CellTiter-Glo after 96 h exposure
[15] = 96 h, read-out: IC50 (nmol/L) Ls174T, CPT free drugs, Table 24, CellTiter-Glo after 96 h exposure
[16] = read-out: IC50 (nmol/L) MDAMB231, CPT free drugs, Table 24, CellTiter-Glo after 96 h exposure
[17] = read-out: IC50 (nmol/L) MOLM-13, CPT free drugs, Table 24, CellTiter-Glo after 96 h exposure
[18] = read-out: IC50 (nmol/L) SU-DHL-4, CPT free drugs, Table 24, CellTiter-Glo after 96 h exposure
[19] = CPT free drugs, Table 24, CellTiter-Glo after 96 h exposure, read-out: IC50 (nmol/L) 786-O
[20] = CPT free drugs, Table 24, CellTiter-Glo after 96 h exposure, read-out: IC50 (nmol/L) A2058
[21] = CPT free drugs, Table 24, CellTiter-Glo after 96 h exposure, read-out: IC50 (nmol/L) BxPC3
[22] = CPT free drugs, Table 24, CellTiter-Glo after 96 h exposure, read-out: IC50 (nmol/L) Calu1
[23] = CPT free drugs, Table 24, CellTiter-Glo after 96 h exposure, read-out: IC50 (nmol/L) DEL
[24] = CPT free drugs, Table 24, CellTiter-Glo after 96 h exposure, read-out: IC50 (nmol/L) DELBVR
[25] = CPT free drugs, Table 24, CellTiter-Glo after 96 h exposure, read-out: IC50 (nmol/L) Karpas299
[26] = CPT free drugs, Table 24, CellTiter-Glo after 96 h exposure, read-out: IC50 (nmol/L) L540cy
[27] = CPT free drugs, Table 24, CellTiter-Glo after 96 h exposure, read-out: IC50 (nmol/L) Ls174T
[28] = CPT free drugs, Table 24, CellTiter-Glo after 96 h exposure, read-out: IC50 (nmol/L) MDAMB231
[29] = CPT free drugs, Table 24, CellTiter-Glo after 96 h exposure, read-out: IC50 (nmol/L) MOLM-13
[30] = CPT free drugs, Table 24, CellTiter-Glo after 96 h exposure, read-out: IC50 (nmol/L) SU-DHL-4
[31] = read-out: IC50 (nmol/L) DEL, CPT free drugs, Table 24, CellTiter-Glo after 96 h exposure
[32] = read-out: IC50 (nmol/L) DELBVR, CPT free drugs, Table 24, CellTiter-Glo after 96 h exposure

SMILES: CC[C@@]1(O)C(=O)OCc2c1cc1n(c2=O)Cc2c-1nc1cc3c(cc1c2CN)CCO3 [Compound 2n]
- IC50 ([1]; read-out: 786-O IC50, Table 28, CPT free drugs, renal carcinoma cells 786-O, 96 h, CellTiter-Glo): 5 nmol/L
- IC50 [1, 11]: 1 nmol/L
- IC50 (melanoma cells (A2058); read-out: A2058 IC50): 3 nmol/L
- IC50 ([2]; read-out: BxPC3 IC50, Table 28, CPT free drugs, pancreatic cancer cells BxPC3, 96 h, CellTiter-Glo): 3 nmol/L
- IC50 [2, 12]: 3 nmol/L
- IC50 ([3]; read-out: Calu1 IC50): 18 nmol/L
- IC50 ([3]; read-out: IC50 (nmol/L) Calu1): 21 nmol/L
- IC50 ([4]; read-out: DEL IC50, Table 28, CPT free drugs, anaplastic large cell lymphoma cells DEL, CellTiter-Glo): 1 nmol/L
- IC50 ([5]; read-out: DELBVR IC50, Table 28, CPT free drugs, anaplastic large cell lymphoma cells DELBVR, CellTiter-Glo): 1 nmol/L
- IC50 [6, 13]: 1 nmol/L
- IC50 ([6]; read-out: Karpas299 IC50, Table 28, CPT free drugs, anaplastic large cell lymphoma cells Karpas299, 96 h, CellTiter-Glo): 5 nmol/L
- IC50 [7, 14]: 1 nmol/L
- IC50 ([7]; read-out: L540cy IC50, Table 28, CPT free drugs, Hodgkin's lymphoma cells L540cy, CellTiter-Glo): 2 nmol/L
- IC50 (Ls174T cells; [15]): 0.8 nmol/L
- IC50 (Ls174T cells; 96 h, read-out: Ls174T IC50, Table 28, CPT free drugs, Ls174T cells, 96 h, CellTiter-Glo): 4 nmol/L
- IC50 [8, 16]: 1 nmol/L
- IC50 ([8]; read-out: MDAMB231 IC50, Table 28, CPT free drugs, breast cancer cells MDA-MB-231, 96 h, CellTiter-Glo): 8 nmol/L
- IC50 [9, 17]: 6 nmol/L
- IC50 ([9]; read-out: MOLM-13 IC50, Table 28, CPT free drugs, acute myeloid leukemia cells MOLM-13, 96 h, CellTiter-Glo): 29 nmol/L
- IC50 [10, 18]: 1 nmol/L
- IC50 ([10]; read-out: SU-DHL-4 IC50, Table 28, CPT free drugs, B-lymphocyte cancer cells SU-DHL4, 96 h, CellTiter-Glo): 1 nmol/L

SMILES: CC[C@@]1(O)C(=O)OCc2c1cc1n(c2=O)Cc2c-1nc1cc(C)c(C)c(F)c1c2CN [Compound 2o]
- IC50 [1, 19]: 66 nmol/L
- IC50 (melanoma cells (A2058); [20]): 18 nmol/L
- IC50 [2, 21]: > 1000 nmol/L
- IC50 [3, 22]: 409 nmol/L
- IC50 [4, 23]: 10 nmol/L
- IC50 [5, 24]: 16 nmol/L
- IC50 [6, 25]: 37 nmol/L
- IC50 [7, 26]: 20 nmol/L
- IC50 (Ls174T cells; [27]): 19.3 nmol/L
- IC50 [8, 28]: 37 nmol/L
- IC50 [9, 29]: 349 nmol/L
- IC50 [10, 30]: 18 nmol/L

SMILES: CC[C@@]1(O)C(=O)OCc2c1cc1n(c2=O)Cc2c-1nc1cccc(F)c1c2CN [Compound 2p]
- IC50 [1, 19]: 14 nmol/L
- IC50 (melanoma cells (A2058); [20]): 11 nmol/L
- IC50 [2, 21]: 62 nmol/L
- IC50 [3, 22]: 160 nmol/L
- IC50 [4, 23]: 4 nmol/L
- IC50 [5, 24]: 8 nmol/L
- IC50 [6, 25]: 27 nmol/L
- IC50 [7, 26]: 7 nmol/L
- IC50 (Ls174T cells; [27]): 15.1 nmol/L
- IC50 [8, 28]: 19 nmol/L
- IC50 [9, 29]: 24 nmol/L
- IC50 [10, 30]: 14 nmol/L

SMILES: CC[C@@]1(O)C(=O)OCc2c1cc1n(c2=O)Cc2c-1nc1cc(F)c(C)c(Br)c1c2CN [Compound 2q, (S)-11-(aminomethyl)-10-bromo-4-ethyl-8-fluoro-4-hydroxy-9-methyl-1,12-dihydro-14H-pyrano[3′,4′:6,7]indolizino[1,2-b]quinoline-3,14(4H)-dione]
- IC50 [1, 11]: 4 nmol/L
- IC50 (melanoma cells (A2058); read-out: IC50 (nmol/L) A2058): 4.8 nmol/L
- IC50 [2, 12]: 50.8 nmol/L
- IC50 ([3]; read-out: IC50 (nmol/L) Calu1): 78 nmol/L
- IC50 [4, 31]: 1 nmol/L
- IC50 [5, 32]: 1 nmol/L
- IC50 [6, 13]: 2.6 nmol/L
- IC50 [7, 14]: 4 nmol/L
- IC50 (Ls174T cells; [15]): 5 nmol/L
- IC50 [8, 16]: 5.4 nmol/L
- IC50 [9, 17]: 17.3 nmol/L
- IC50 [10, 18]: 1.5 nmol/L

SMILES: CC[C@@]1(O)C(=O)OCc2c1cc1n(c2=O)Cc2c-1nc1ccc(SC(F)(F)F)cc1c2CN [Compound 2r]
- IC50 [1, 19]: 21 nmol/L
- IC50 (melanoma cells (A2058); [20]): 11 nmol/L
- IC50 [2, 21]: 75 nmol/L
- IC50 [3, 22]: 168 nmol/L
- IC50 [4, 23]: 4.4 nmol/L
- IC50 [5, 24]: 8.4 nmol/L
- IC50 [6, 25]: 37 nmol/L
- IC50 [7, 26]: 15 nmol/L
- IC50 (Ls174T cells; [27]): 15.6 nmol/L
- IC50 [8, 28]: 19 nmol/L
- IC50 [9, 29]: 23 nmol/L
- IC50 [10, 30]: 16 nmol/L

SMILES: CC[C@@]1(O)C(=O)OCc2c1cc1n(c2=O)Cc2c-1nc1cc(F)c(C)c(C)c1c2CN [Compound 2s]
- IC50 [1, 11]: 3 nmol/L
- IC50 (melanoma cells (A2058); read-out: IC50 (nmol/L) A2058): 1 nmol/L
- IC50 [2, 12]: 7 nmol/L
- IC50 ([3]; read-out: IC50 (nmol/L) Calu1): 22 nmol/L
- IC50 [4, 31]: 1 nmol/L
- IC50 [5, 32]: 1 nmol/L
- IC50 [6, 13]: 2 nmol/L
- IC50 [7, 14]: 2 nmol/L
- IC50 (Ls174T cells; [15]): 3.7 nmol/L
- IC50 [8, 16]: 2 nmol/L
- IC50 [9, 17]: 18 nmol/L
- IC50 [10, 18]: 2 nmol/L

SMILES: CC[C@@]1(O)C(=O)OCc2c1cc1n(c2=O)Cc2c-1nc1ccc3c(c1c2CN)OCC3 [Compound 2t]
- IC50 [1, 19]: 101 nmol/L
- IC50 (melanoma cells (A2058); [20]): 39 nmol/L
- IC50 [2, 21]: 230 nmol/L
- IC50 [3, 22]: ≥ 1000 nmol/L
- IC50 [4, 23]: 18 nmol/L
- IC50 [5, 24]: 33 nmol/L
- IC50 [6, 25]: 133 nmol/L
- IC50 [7, 26]: 43 nmol/L
- IC50 (Ls174T cells; [27]): 18 nmol/L
- IC50 [8, 28]: 73 nmol/L
- IC50 [9, 29]: 179 nmol/L
- IC50 [10, 30]: 51 nmol/L

SMILES: CC[C@@]1(O)C(=O)OCc2c1cc1n(c2=O)Cc2c-1nc1ccc3c(c1c2CN)CCC3 [Compound 2u]
- IC50 [1, 19]: 10 nmol/L
- IC50 (melanoma cells (A2058); [20]): 4 nmol/L
- IC50 [2, 21]: 23 nmol/L
- IC50 [3, 22]: 61 nmol/L
- IC50 [4, 23]: 2 nmol/L
- IC50 [5, 24]: 2 nmol/L
- IC50 [6, 25]: 7 nmol/L
- IC50 [7, 26]: 5 nmol/L
- IC50 (Ls174T cells; [27]): 5.3 nmol/L
- IC50 [8, 28]: 6 nmol/L
- IC50 [9, 29]: 48.3 nmol/L
- IC50 [10, 30]: 4 nmol/L
